How the values were obtained:
Assay type in all cases: physicochemical
[1] = Water in oil emulsion stability test (Example 65); conditions: 0.5 mL water with 2 wt % substance + 1.5 mL sunflower oil, vortex 30 s, visual inspection
Protocol: 0.5 mL deionized water containing 2 wt % of the stated inventive or comparative compound was added to 1.5 mL commercial, food-grade sunflower oil, in a sample vial. The vials were each agitated with a IKA Vortex mixture for 30 seconds. The vials were left to stand and inspected visually for emulsion quality after 5 minutes, 1 hour, 4 hours and finally 24 h (FIG. 14 and FIG. 15). […] The results also show an unexpected increase in emulsifying performance for the inventive compositions comprising oligosaccharide mixture-derived surface-active agents (such as example 4-6 compositions) compared with those derived from a single monomeric sugar (xylose) alone (such as example 12 and 13 compositions).

[2] = Flash foam generation test (Example 70); conditions: 20 mg in 4 mL deionized water (10 wt % [sic]), 2 mL shaken 30 s in 15 mL tube, duplicate average
Protocol: 20 mg of each surface-active composition for testing was dissolved in deionized water (4 mL) to give a 10 wt % solution, 2 mL was added to a 15 mL FALCON tube. Each falcon tube was secured in a holder before being vigorously shook for 30 seconds. The initial foam height and structure was noted. The foam height was then noted at 5 min, 10 min, 15 min, 30 min, 45 min, 1 hr and 2 hr after the initial measurement. The experiment was repeated in duplicate. Averaged results are depicted in table 5 and FIG. 11.

[3] = Relative viscosity, gravity flow time (Example 74); conditions: 10 mL of 10 wt % sodium dodecyl sulfate + 0.3 g NaCl + 0.655 mL of 30 wt % test solution, 27° C., triplicate
Protocol: The time taken for precisely 3 mL of testing mixture to pass out of the […] by gravity was recorded. The test was repeated in triplicate. Averaged results are depicted in FIG. 20 and table 9. It was unexpected that example 11 composition recorded such high viscosity over example 14 composition, which differs by a slightly smaller alkyl chain (octyl instead of decyl).

[4] = Dynamic foam tests (Example 69); conditions: 5 mL of 0.5 wt % aqueous solution, 40 cm^3 air bubbled at 17 cm^3/min
Protocol: The intensity and approximate decay-rate for the foaming behavior of the surface-active compositions in dilute aqueous solution was determined by dosing 5 mL of 0.5 wt % aqueous solution of surface-active composition to a vertically-aligned 50 m plastic serological pipette (“Stripette”). Air (40 cm^3) was bubbled through the surface-active composition solution at a rate of 17 cm^3/min via a syringe pump and the foam height upon complete addition of air recorded. The foam height was also recorded again 5 min after complete addition of air, 10 min after complete addition of air, 15 m after complete addition of air, 30 min after complete addition of air, 1 hour after complete addition of air and finally 2 hours after complete addition of air.

[5] = Aqueous hydrolytic stability by UPLC-MS (Example 73); conditions: 0.5 mg/mL
Protocol: Determination of aqueous stability of the test compounds was performed using UPLC-MS. A test compound 10 mg/mL stock solution was prepared by dissolving Example 11 composition (N-decyl-N-acetylxylosylamine) (inventive surface-active composition) in DMSO. Buffer solutions, comprised of simple, commercially-available acidic or basic substances in deionized water were prepared at pH 1, pH 3, pH 4, pH 5, pH 6, pH 7, pH 9, pH 11 and pH 13.

[6] = Aqueous solubility noted at preparation
Protocol: Solid N-decyl xylosylamine (7.6 g) was suspended in 2-propanol (60 mL) and triethylamine (2 equiv.) then acetic anhydride (1.6 equiv.) was added slowly. Stirring continued at ambient temperature for 10 h. Water (50 mL) was added, and the mixture stirred for 5 min. Dichloromethane (50 mL) was added and the phases separated. The aqueous phase was extracted with additional DCM. The combined organic phase washed with saturated aqueous NH4Cl solution, then the aqueous phase extracted with additional DCM. The combined organic phases were dried over anhydrous magnesium sulfate, filtered, then concentrated under reduced pressure to give a yellow oil. The oil was purified by FCC eluting with MeOH (2-15%) in DCM (120 g normal phase silica cartridge with wet loading). Fractions containing the product were combined and evaporated to dryness to give the desired product (4.1 g, 49%) as a yellow gum. LC-MS (Method A), Rt=1.69 min, [M+H]+=332.2. The gum product can be dissolved in water to form solutions of 50 wt % or greater.
The process was carried out in essentially the same manner as in Example 11 a) step (ii) but using the solid product of Example 11 reaction c) step (i) and the crude product was instead purified by FCC eluting with MeOH (2-13%) in DCM. There were obtained 1.4 g of cream gum product. LC-MS (Method A), Rt=1.87 min, [M+H]^+=360.5.

[7] = Emulsion formation with different oil-water ratios (Example 66); conditions: water-oil ratio 1:2.5, groundnut oil, 3.0 wt % composition
Protocol: The ability of inventive surface-active compositions to stabilize emulsions in different mass-ratios of vegetable oil and water was investigated. Mixtures of water, vegetable oil and inventive surface-active composition were prepared as per table below, by adding groundnut oil, water, and surface-active composition in the desired mass ratio. The mixtures were heated at 60 C in a homogenizer (stirring for 10 minutes at 800 rpm, then further homogenized at this speed and ambient temperature for 5 min). The visual appearance of each mixture was acknowledged. The mixtures were then treated by centrifugation at 1500 rpm for 5 mi and the visual appearance was again acknowledged.

- Time inspected by which the emulsion first appeared dispersed [1]: 24 h
- Volume of foam after given time ([2]; 0 min): 8.3 cm^3
- Volume of foam after given time ([2]; 5 min): 4.8 cm^3
- Volume of foam after given time ([2]; 15 min): 2.5 cm^3
- Volume of foam after given time ([2]; 30 min): 2.3 cm^3
- Volume of foam after given time ([2]; 1 h): 2.0 cm^3
- Volume of foam after given time ([2]; 2 h): 2.0 cm^3
- Average time (for 3 mL to pass out of the stripette by gravity) [3]: 270.3 s
- Volume of foam after given time ([4]; 0 min): 36.0 cm^3
- Volume of foam after given time ([4]; 5 min): 2.0 cm^3
- Volume of foam after given time ([4]; 15 min): 2.0 cm^3
- Volume of foam after given time ([4]; 30 min): 2.0 cm^3
- Volume of foam after given time ([4]; 1 h): 2.0 cm^3
- Volume of foam after given time ([4]; 2 h): 2.0 cm^3
- Stability During 1-week (daily monitoring) (% of original concentration lost to degradation) ([5]; Buffer pH 1, 25° C.): (<50%)
- Stability During 12-hour Assay (% of original concentration lost to degradation) ([5]; Buffer pH 1, 25° C.): (<1%) degradation
- Stability During 1-week (daily monitoring) (% of original concentration lost to degradation) ([5]; Buffer pH 3, 25° C.): (<0.1%) degradation
- Stability During 12-hour Assay (% of original concentration lost to degradation) ([5]; Buffer pH 3, 25° C.): (<0.1%) degradation
- Stability During 1-week (daily monitoring) ([5]; Buffer pH 4, 25° C.): Full stability
- Stability During 12-hour Assay ([5]; Buffer pH 4, 25° C.): Full stability
- Stability During 1-week (daily monitoring) ([5]; Buffer pH 5, 25° C.): Full stability
- Stability During 12-hour Assay ([5]; Buffer pH 5, 25° C.): Full stability
- Stability During 1-week (daily monitoring) ([5]; Buffer pH 6, 25° C.): Full stability
- Stability During 12-hour Assay ([5]; Buffer pH 6, 25° C.): Full stability
- Stability During 1-week (daily monitoring) ([5]; Buffer pH 7, 25° C.): Full stability
- Stability During 12-hour Assay ([5]; Buffer pH 7, 25° C.): Full stability
- Stability During 1-week (daily monitoring) ([5]; Buffer pH 9, 25° C.): Full stability
- Stability During 12-hour Assay ([5]; Buffer pH 9, 25° C.): Full stability
- Stability During 1-week (daily monitoring) (% of original concentration lost to degradation) ([5]; Buffer pH 11, 25° C.): (<0.1%) degradation
- Stability During 12-hour Assay (% of original concentration lost to degradation) ([5]; Buffer pH 11, 25° C.): (<0.1%) degradation
- Stability During 1-week (daily monitoring) (% of original concentration lost to degradation) ([5]; Buffer pH 13, 25° C.): (<10%)
- Stability During 12-hour Assay (% of original concentration lost to degradation) ([5]; Buffer pH 13, 25° C.): (<0.1%) degradation
- Concentration of solutions formed in water ([6]; gum product dissolved in water): ≥ 50 wt %
- Aqueous solubility (in words) ([6]; water, room temperature): excellent aqueous solubility
- Visual interpretation of results, after centrifugation ([7]; 1500 rpm 5 min): Complete phase-separation
- Visual interpretation of results, before centrifugation ([7]; homogenized at 60 C): Emulsion failed to form.
Structure (SMILES): CCCCCCCCCCN(C(C)=O)C1OC[C@@H](O)[C@H](O)[C@H]1O (stereo partly drawn) [Example 11 composition, N-decyl N-acetyl xylosylamine]
